Several values for one entry are separate records, joined by “and”; a condition that tells them apart may be missing. Equal entries are not always repeated. Entries after “also recorded” stand apart in the source; their conditions may differ.
Experiments:
[1] = target: T1, PPARa-LBD (Homo sapiens, UniProt Q07869); test: PPARa-LBD reporter construct transcriptional activation; type: cell-based
T1 construct: fold induction of reporter constructs of Nurr1-LBD, PPARa-LBD, and PPARγ-LBD; expressed in transfected cells
T1 sequence (Q07869 239-466 limits assumed): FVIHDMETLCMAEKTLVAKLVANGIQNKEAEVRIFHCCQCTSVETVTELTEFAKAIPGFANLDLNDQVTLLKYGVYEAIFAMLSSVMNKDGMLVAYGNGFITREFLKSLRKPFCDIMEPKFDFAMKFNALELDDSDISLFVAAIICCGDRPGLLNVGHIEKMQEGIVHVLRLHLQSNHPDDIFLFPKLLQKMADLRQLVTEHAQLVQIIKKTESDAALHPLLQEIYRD
Source text: FIG. 13 depicts the fold induction of reporter constructs of Nurr1-LBD, PPARa-LBD, and PPARγ-LBD by different concentrations of PGH1, PGH2, PGJ2, and 15-d-PGJ2.

[2] = tested on: Nurr1-LBD; test: Nurr1 LBD-dependent luciferase reporter assay in SK-N-BE(2)C cells; type: cell-based; details: GAL4(DBD)-Nurr1(LBD) luciferase reporter
Procedure: The graph depicts Nurr1-inducing activities by tissue extracts from brain, lung, heart, and kidney. […] The effector plasmid pSVGAL4(DBD)Nurr1(LBD) and the reporter gene for p8XUASL-Luc, together with b-galactosidase expression vector, were transiently transfected into neuroblastoma SK-N-BE(2)C cells. 6 h after transfection, cells were treated with the various tissue extracts for 20 h and the reporter activities were determined by luciferase assay and normalized to the b-galactosidase activity. The basal level of transcriptional activity was normalized to 1. The bars represent means +S.E.M. from three independent experiments.
Graph depicts effects of single or combination treatment with AQ/CQ and prostaglandin (PGE) on Nurr1 activity. As a negative control, human neuroblastoma SK-N-BE(2)C cells transfected with p8XUAS-Luc and pGAL(DBD)Nurr1(LBD) constructs were treated with DMSO alone. As a positive control, cells were treated as described above and harvested 24 h after treatment. An expression vector encoding RSV b-gal was co-transfected to allow normalization for transfection efficiency. Luciferase activity is represented as fold induction after normalization to β-galactosidase compared to cells treated with DMSO alone. Data represent the means ±SEMs of triplicate samples.

[3] = target: T2, PPARγ-LBD (Homo sapiens, UniProt P37231); test: PPARγ-LBD reporter construct transcriptional activation; type: cell-based
T2 construct: fold induction of reporter constructs of Nurr1-LBD, PPARa-LBD, and PPARγ-LBD; expressed in transfected cells
T2 sequence (P37231 238-503 limits assumed): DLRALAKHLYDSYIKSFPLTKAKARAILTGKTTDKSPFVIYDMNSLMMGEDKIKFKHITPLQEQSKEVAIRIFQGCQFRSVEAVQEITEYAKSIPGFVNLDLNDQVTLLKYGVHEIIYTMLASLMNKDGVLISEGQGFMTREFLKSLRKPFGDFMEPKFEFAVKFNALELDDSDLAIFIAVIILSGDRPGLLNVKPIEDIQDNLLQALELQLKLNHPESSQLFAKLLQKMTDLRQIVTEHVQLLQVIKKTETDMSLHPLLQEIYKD
Source text: FIG. 13 depicts the fold induction of reporter constructs of Nurr1-LBD, PPARa-LBD, and PPARγ-LBD by different concentrations of PGH1, PGH2, PGJ2, and 15-d-PGJ2. […]

[4] = tested on: MPTP-induced animal model of PD; test: MPTP-induced animal model of PD; type: in vivo, mice; details: for TH density in the striatum / number of TH+ neurons in the SN: MPTP-treated mice, compared to saline-treated control mice; for latency to fall on a rotating rod (rotarod) / time to descent on the pole (pole test): day 6 following MPTP, compared to saline-treated mice
Source text: FIG. 22A depicts a schematic representation of the administration of PGE1 or PGA1 to MPTP-induced animal model of PD. MPTP-treated mice were pre-administrated with PGE1, PGA1 or saline for 3 days before MPTP injection and post-treated for 5 days after MPTP injection.

[5] = tested on: H9, human embryonic stem cell (hESC); test: Dopaminergic differentiation of H9 hESC (real time PCR); type: cell-based; details: for expression level of Lmx1A / expression level of TH: 15 days of differentiation, compared to vehicle group
Procedure: After 15 days of differentiation procedure including floor plate induction (day1˜day6), neural precursor induction (day 6˜day 12), and dopaminergic precursor induction (day 12˜day 15), cells were harvested for RNA extraction and cDNA preparation. The real time PCR was performed using cDNA and the matching primers for FoxA2, Lmx1A, and TH to determine the level of dopaminergic differentiation.

[6] = tested on: LPS-induced immunoactivated mouse bone marrow-derived macrophages; test: Pro-inflammatory gene expression in immune-activated mBMMs; type: cell-based; details: LPS- or poly(I:C)-induced immune-activated mBMMs, 18 hrs
Procedure: FIG. 25 show titrations of prostaglandin A1 (PGA1), A2 (PGA2), E1 (PGE1), E2 (PGE2) in LPS-induced immunoactivated mouse bone marrow-derived macrophages. […] The maximal effective concentration was 20 μM or 10 μg/ml.

[7] = tested on: primary cultured mDA neurons; test: MPP+ toxicity in primary cultured mDA neurons; type: cell-based; details: MPP+ exposure
Source text: MPP+exposure to mDA neurons decreases the number of TH positive dopaminergic neurons.

CCCCC/C=C/C=C1/C(=O)C=C[C@@H]1C/C=C\CCCC(=O)O [15-d-PGJ2]
transcriptional activity of PPARalpha LBD [1]: robustly activated PPARs | transcriptional activity of Nurr1-LBD [2]: not Nurr1 LBD | transcriptional activity of PPARγ-LBD [3]: robustly activated PPARs; also recorded: increases transcriptional activity of PPARγ-LBD

CCCCC[C@H](O)/C=C/[C@H]1C=CC(=O)[C@@H]1CCCCCCC(=O)O [PGA1, prostaglandin A1]
TH density in the striatum [4]: retain | number of TH+ neurons in the SN [4]: retain a significant number | latency to fall on a rotating rod (rotarod) [4]: rescues impaired motor behaviors | time to descent on the pole (pole test) [4]: rescues impaired motor behaviors | expression level of Lmx1A [5]: significantly higher expression level of Lmx1A and TH | expression level of TH [5]: significantly higher expression level of Lmx1A and TH | transcriptional activity of Nurr1-LBD [2]: increases transcriptional activity of Nurr1-LBD in a dose dependent manner | maximal effective concentration [6]: 20 μM and 10 μg/ml | suppression of pro-inflammatory genes TNFα, IL-1β, iNOS and IL-6 [6]: induced suppression of pro-inflammatory genes including TNFα, IL-1β, iNOS and IL-6 in a dose-dependent manner | MPP+-induced loss of TH-positive mDA neurons [7]: significantly rescued the MPP+-induced loss of TH-positive mDA neurons

CCCCC[C@H](O)/C=C/[C@H]1C=CC(=O)[C@@H]1C/C=C\CCCC(=O)O [PGA2]
transcriptional activity of Nurr1-LBD [2]: increases transcriptional activity of Nurr1-LBD in a dose dependent manner | maximal effective concentration [6]: 20 μM and 10 μg/ml | suppression of pro-inflammatory genes TNFα, IL-1β, iNOS and IL-6 [6]: induced suppression of pro-inflammatory genes including TNFα, IL-1β, iNOS and IL-6 in a dose-dependent manner

CC/C=C\C[C@H](O)/C=C/[C@H]1C=CC(=O)[C@@H]1C/C=C\CCCC(=O)O [PGA3]
transcriptional activity of Nurr1-LBD [2]: increases transcriptional activity of Nurr1-LBD in a dose dependent manner

CCCCC[C@H](O)/C=C/C1=C(CCCCCCC(=O)O)C(=O)CC1 [PGB1]
expression level of Lmx1A [5]: significantly higher expression level of Lmx1A and TH | expression level of TH [5]: significantly higher expression level of Lmx1A and TH | transcriptional activity of Nurr1-LBD [2]: increases transcriptional activity of Nurr1-LBD in a dose dependent manner | transcriptional activity of PPARγ-LBD [3]: activate transcriptional function of PPARγ in a dose-dependent manner

CCCCC[C@H](O)/C=C/C1=C(C/C=C\CCCC(=O)O)C(=O)CC1 [PGB2]
transcriptional activity of Nurr1-LBD [2]: increases transcriptional activity of Nurr1-LBD in a dose dependent manner | transcriptional activity of PPARγ-LBD [3]: activate transcriptional function of PPARγ in a dose-dependent manner

CC/C=C\CC(O)/C=C/C1=C(C/C=C\CCCC(=O)O)C(=O)CC1 (centres unmarked) [PGB3]
transcriptional activity of Nurr1-LBD [2]: increases transcriptional activity of Nurr1-LBD in a dose dependent manner

CCCCC[C@H](O)/C=C/[C@H]1[C@H](O)CC(=O)[C@@H]1CCCCCCC(=O)O [PGE1]
TH density in the striatum [4]: retain | number of TH+ neurons in the SN [4]: retain a significant number | latency to fall on a rotating rod (rotarod) [4]: rescues impaired motor behaviors | time to descent on the pole (pole test) [4]: rescues impaired motor behaviors | TH expression compared with cAMP ([5]; 0.01 mM concentration): dramatic increase of TH expression in 0.01 mM concentration, which was even stronger than cAMP | expression level of Lmx1A [5]: significantly higher expression level of Lmx1A and TH | expression level of TH [5]: significantly higher expression level of Lmx1A and TH | transcriptional activity of Nurr1-LBD [2]: specifically and prominently activate the transcription function of Nurr1; also recorded: endogenous activators/agonists of Nurr1 function; also recorded: activate the transcriptional activity of Nurr1 in a dose-dependent manner; also recorded: increase transcriptional activity of Nurr1-LBD in a dose dependent manner | maximal effective concentration [6]: 20 μM and 10 μg/ml | suppression of pro-inflammatory genes TNFα, IL-1β, iNOS and IL-6 [6]: induced suppression of pro-inflammatory genes including TNFα, IL-1β, iNOS and IL-6 in a dose-dependent manner | transcriptional activity of PPARγ-LBD [3]: failed to induce transcriptional activity of PPARγ-LBD | MPP+-induced loss of TH-positive mDA neurons [7]: significantly rescued the MPP+-induced loss of TH-positive mDA neurons

CCCCC[C@H](O)/C=C/[C@H]1[C@H](O)CC(=O)[C@@H]1C/C=C\CCCC(=O)O [PGE2]
transcriptional activity of Nurr1-LBD [2]: specifically and prominently activate the transcription function of Nurr1; also recorded: endogenous activators/agonists of Nurr1 function; also recorded: activate the transcriptional activity of Nurr1 in a dose-dependent manner; also recorded: increase transcriptional activity of Nurr1-LBD in a dose dependent manner | maximal effective concentration [6]: 20 μM and 10 μg/ml | suppression of pro-inflammatory genes TNFα, IL-1β, iNOS and IL-6 [6]: induced suppression of pro-inflammatory genes including TNFα, IL-1β, iNOS and IL-6 in a dose-dependent manner | transcriptional activity of PPARγ-LBD [3]: failed to induce transcriptional activity of PPARγ-LBD

CC/C=C\C[C@H](O)/C=C/[C@H]1[C@H](O)CC(=O)[C@@H]1C/C=C\CCCC(=O)O [PGE3]
transcriptional activity of Nurr1-LBD [2]: specifically and prominently activate the transcription function of Nurr1; also recorded: endogenous activators/agonists of Nurr1 function

CCCCC[C@H](O)/C=C/[C@@H]1[C@@H](CCCCCCC(=O)O)[C@@H](O)C[C@H]1O [PGF2a]
transcriptional activity of Nurr1-LBD [2]: activates transcriptional function of Nurr1; also recorded: increases transcriptional activity of Nurr1-LBD in a dose dependent manner | transcriptional activity of PPARγ-LBD [3]: failed to induce transcriptional activity of PPARγ-LBD

CCCCC[C@H](O)/C=C/C1C2CC(OO2)C1C/C=C\CCCC(=O)O (some centres unmarked) [PGH2]
transcriptional activity of Nurr1-LBD [2]: robustly activate the transcriptional activities of Nurr1 LBD; also recorded: increase transcriptional activity of Nurr1-LBD in a dose dependent manner | transcriptional activity of PPARγ-LBD [3]: failed to induce transcriptional activity of PPARγ-LBD

CCCCC[C@H](O)/C=C/[C@H]1C(=O)C=C[C@@H]1C/C=C\CCCC(=O)O [PGJ2]
transcriptional activity of PPARalpha LBD [1]: robustly activated PPARs | transcriptional activity of Nurr1-LBD [2]: not Nurr1 LBD | transcriptional activity of PPARγ-LBD [3]: robustly activated PPARs

CCCCC[C@H](O)/C=C/[C@H]1OC(O)C[C@H](O)[C@@H]1C/C=C\CCCC(=O)O (some centres unmarked) [TxB2, reference compound]
transcriptional activity of Nurr1-LBD [2]: does not activate transcriptional function of Nurr1 and PPARγ; also recorded: failed to induce transcriptional activity of Nurr1-LBD | transcriptional activity of PPARγ-LBD [3]: does not activate transcriptional function of Nurr1 and PPARγ; also recorded: failed to induce transcriptional activity of PPARγ-LBD

From patent publication US20230190873A1, “METHODS AND COMPOSITIONS RELATED TO THE TREATMENT OF NURR1- AND PPARy-MEDIATED CONDITIONS” (The McLean Hospital Corporation, priority 2017, published 2023)
